Reference: patent publication US12011502B2, “Compositions and methods of administering baclofen” (AMNEAL PHARMACEUTICALS LLC, priority 2021, dated 2024)

Tests used:
[1] = reported in the literature; cited from earlier work
[2] = limited evaluation, literature; cited from earlier work
[3] = Solubility of baclofen in solutions comprising sulfate or phosphate; type: physicochemical
Procedure: A concentration of 8.8 mg/mL sodium chloride is considered isotonic and therefore desirable as being physiologically acceptable.

Compound | dominant metabolite of baclofen, reported share [1] [%] | biological activity of the metabolite [2] | solubility of baclofen ([3]; in solutions comprising sulfate or phosphate) | concentration of baclofen that can be dissolved ([3]; solutions containing phosphate, sulfate, potassium, sodium, or magnesium, such as greater than 3, 4, 5 or 6 mg/mL)
O=C(O)CC(CO)c1ccc(Cl)cc1 (stereo not shown) [M1, 3-(4-chlorophenyl)-4-hydroxybutyric acid] | 15 | inactive | – | –
NCC(CC(=O)O)c1ccc(Cl)cc1 (stereo not shown) [baclofen, 4-amino-3-(4-chlorophenyl)butanoic acid] | – | – | increased | greater than 2 mg/mL
